Source: patent US20180085356A1, “METHOD OF TREATING DISEASE CHARACTERISED BY PROTEIN AGGREGATE DEPOSITION IN NEURONAL CELLS” (CHRONOS THERAPEUTICS LIMITED, priority 2013, published 2018)
Read-outs that look alike come from different tables or passages of the source.

Legend:
[1] = Tacrolimus blood levels in healthy human volunteers given capsule; assay type: in vivo; details: oral
Protocol: A hard gelatine capsule was filled with the following composition:
One capsule as above containing 0.3 mg tacrolimus was administered daily to healthy human volunteers for three successive days. […] Similarly, no change in TNF-α levels occurred as a result of administering 0.6 mg daily of tacrolimus to healthy volunteers. The average trough level of tacrolimus (level after 24 hours of administration of each dose) observed was approximately 220 pg/ml.

IL-6 = assay: Microglial inflammatory cytokine production by qPCR (LPS challenge); assay type: cell-based, rat; details: 100 ng/ml LPS overnight
Protocol: To investigate the effect of tacrolimus on microglial function, rat microglia were isolated as follows. A primary glial co-culture was isolated from P2 Sprague Dawley rat pups. The cells were cultured until confluency and then the microglia were isolated from the confluent glial cells through mechanical shaking. The isolated microglial cells were then subjected to inflammatory challenge by overnight exposure to 100 ng/ml lipopolysaccharide (LPS), in the presence or absence of tacrolimus. Glial cell activity was monitored by determining cell viability (Cell Counting Kit-8), the presence of reactive oxygen species (by quantitative fluorescence measurement in the supernatant/cell lysate), microvesicle shedding (by monitoring vesicle formation in cells loaded with Calcein-AM and then challenged with 1 mM ATP) and inflammatory cytokine production (by qPCR).

[2] = system: C. elegans expressing wild-type human SOD-1 in the body wall muscle; assay: C. elegans lifespan assay, wild-type SOD-1 strain; assay type: in vivo, Caenorhabditis elegans
Protocol: (§1) Tacrolimus was tested in a number of disease models using the nematode worm, Caenorhabditis elegans, in which aggregate-prone proteins associated with neurodegenerative diseases are expressed in certain cell types. The effect of tacrolimus was determined by measuring the lifespan of worms in the presence and absence of tacrolimus, using the following general methodology. All of the worms tested using these assays also contained, in addition to the transgene expressing the disease-related protein, a mutation in the bus-5 gene which confers drug-sensitivity.
(§2) C. elegans cultures were synchronised by incubating an asynchronous culture in basic sodium hypochlorite solution to kill everything but the bleach-resistant mature eggs. […] From this point on, each ageing population was inspected at regular intervals (e.g. daily) and viability assessed by counting the number of dead worms.
(§3) The cumulative number of dead worms for each population was used to generate a survival/viability plot to determine chronological lifespan (CLS). Survival was analysed using the Kaplan-Meier log-rank survival analysis method, using the Online Application for Survival (OASIS; see http://sbi.postech.ac.kr/oasis). […]
(§4) The effect of tacrolimus on C. elegans expressing wild-type or mutant human SOD-1 in the body wall muscle was determined. […]

[3] = system: C. elegans expressing mutant human SOD-1 (127X) in the body wall muscle; assay: C. elegans lifespan assay, mutant SOD-1 strain; assay type: in vivo, Caenorhabditis elegans
Protocol: as §1, §2, §3, §4

[4] = system: C. elegans expressing YFP alone (Q0) in the body wall muscle; assay: C. elegans lifespan assay, YFP alone (Q0) strain; assay type: in vivo, Caenorhabditis elegans; details: p<0.05 vs. Q0 DMSO
Protocol: as §1
as §2, with “eggs. The eggs were added on to agar plates and then allowed to hatch and develop in the presence of the test compound (or vehicle) and bacterial food source.” for “eggs.”
as §3

[5] = system: unilaterally 6-OHDA-lesioned rats; assay: Amphetamine-induced rotational asymmetry in unilaterally 6-OHDA-lesioned rats; assay type: in vivo, rat; details: 1 mg/kg s.c. 6 days/week, by 6 months, compared to baseline; p<0.05 vs. vehicle at 6 months
Text: The objective of this study was to investigate the effect of chronic subcutaneous (s.c) tacrolimus treatment in an aged rat model of Parkinson's disease. Lesion of dopaminergic projections was created by unilateral injection of 6-hydroxydopamine (6-OHDA) in the right medial forebrain bundle (MFB), causing a widespread de-afferentation of substantia nigra pars compacta (SNc) and ventral tegmental area (VTA) terminal fields. The animals can then be monitored for amphetamine-induced rotation asymmetry behaviour: because the lesion is unilateral, asymmetric movement is observed. The degree to which a drug treatment is able to counteract the effects of the lesion can be measured by the reduction in the asymmetry of movement (i.e. the number of clockwise (CW) rotations vs. the number of counterclockwise (CCW) rotations). 50 female Fischer rats aged 18 months were stereotactically injected with 4 μl […] 6-OHDA into the right MFB. […] Motor asymmetry was monitored in automated rotometer bowls (TSE Systems, Germany) for 120 minutes after injection of amphetamine (2.5 mg/kg s.c.). The net rotation asymmetry score for amphetamine test was calculated by subtracting contralateral turns from the ipsilateral turns to the lesion side.

[6] = bec-1 RNAi, p>0.05 vs. bec-1 RNAi DMSO

In the case of C=CC[C@@H]1/C=C(\C)C[C@H](C)C[C@H](OC)[C@H]2O[C@@](O)(C(=O)C(=O)N3CCCC[C@H]3C(=O)O[C@H](/C(C)=C/[C@@H]3CC[C@@H](O)[C@H](OC)C3)[C@H](C)[C@@H](O)CC1=O)[C@H](C)C[C@@H]2OC [tacrolimus, Tacrolimus], the average peak level ([1]; 0.3 mg capsule daily, three days) is reported as “approximately 3700 pg/mL”, the concentration at 24 h ([1]; human, blood, two capsules, single dose of 0.6 mg, read-out: expected trough level) is reported as roughly 0.44 ng/mL and the AUC ([1]; human, blood, 0.3 mg capsule daily, three days, read-out: average area under the curve AUC 0_t) is reported as roughly 23.5 ng·h/mL. For the same molecule, the concentration at 24 h ([1]; human, blood, 0.3 mg capsule daily, three days, read-out: average trough level (after 24 hours of administration of each dose)) was roughly 0.22 ng/mL, the “LPS induction of IL-6 expression” value (IL-6) was “significantly reduced” and the lifespan ([2]; 10 μg/ml in NGM agar, p<0.05 DMSO vs. Tacrolimus) was “significant increase in lifespan”. The “increase in lifespan when bec-1 knocked down by RNAi” value [2, 6] was “virtually abolished”, the “increase in lifespan when bec-1 knocked down by RNAi” value [3, 6] was “virtually abolished” and the lifespan ([3]; p<0.05 DMSO vs. Tacrolimus) was “significant increase in lifespan”. The lifespan [4] was “significantly increases lifespan” and the amphetamine-induced rotational asymmetry [5] was “significant reduction in rotational asymmetry”.
